Results reported in article PMC4742234, “Screening of Drug Metabolizing Enzymes for the Ginsenoside Compound K In Vitro: An Efficient Anti-Cancer Substance Originating from Panax Ginseng” (PLoS ONE, 2016).

Assays:
CYP3A4 = tested on: CYP3A4; set-up: method as in Hao et al.(2008); conditions: baculosomes, ref Hao et al.(2008); cited from earlier work
[1] = substrate: CC(C)=CCC[C@](C)(OC1O[C@H](CO)[C@@H](O)[C@H](O)[C@H]1O)[C@H]1CC[C@]2(C)[C@@H]1[C@H](O)C[C@@H]1[C@@]3(C)CC[C@H](O)C(C)(C)[C@@H]3CC[C@]12C; assay: Kinetic analysis of CK metabolism by recombinant CYP2C9; assay type: in vitro ADME, human; conditions: other: recombinant CYP2C9 10 pmol, CK 10–100 μM; pH 7.4; 37.0 °C
Protocol: The method was conducted according to our previous study with some modifications. The CYP isoform-specific probe reactions used were phenacetin O-deethylation (for CYP1A2), coumarin 7-hydroxylation (for CYP2A6), tolbutamide 4-hydroxylation (for CYP2C9), metoprolol α-hydroxylation (for CYP2D6), chlorzoxazone 6-hydroxylation (for CYP2E1),S-Mephenytoin 4-hydroxylation (for CYP2C19), and midazolam 1-hydroxylation (for CYP3A4). The kinetic study of CK was conducted with HLMs. A 0.2 mL incubation mixture that consisted of CK (as a substrate), the HLMs (0.5 mg/mL) or CYP isoforms (10 pmol), and 0.1 M sodium phosphate buffer (pH 7.4) was pre-warmed for 5 min at 37°C. The reaction was initiated by the addition of 1 mg/mL triphosphopyridine nucleotide (NADPH). […]
The kinetic parameters for the metabolism of CK were determined by incubating increasing concentrations of CK (10–100 μM) at 37°C with the HLMs and NADPH under the incubation conditions as described in detail previously. The equation of CK reaction velocity (V) in the HLMs or CYP isoforms is expressed as V = (C0–Ct)/T/Cp, where C0and Ct are the initial and final concentrations of CK in the incubation solution, respectively, T is the incubation time (min), and Cp is the protein concentration (mg/mL or nmol). All values were expressed as the mean±standard deviation (SD). […]

Row | Molecule | CYP3A4 inhibition (CYP3A4) | Km [1]
1 | CC(C)=CCC[C@](C)(O)[C@H]1CC[C@]2(C)[C@@H]1[C@H](O)C[C@@H]1[C@@]3(C)CC[C@H](O[C@@H]4O[C@H](CO)[C@@H](O)[C@H](O)[C@H]4O)C(C)(C)[C@@H]3CC[C@]12C [Rh2, reference compound] | moderate | 
2 | recombinant CYP2C9 (Homo sapiens) (protein, purchased Cypex Ltd. (U.K.)) MDSLVVLVLCLSCLLLLSLWRQSSGRGKLPPGPTPLPVIGNILQIGIKDISKSLTNLSKVYGPVFTLYFGLKPIVVLHGYEAVKEALIDLGEEFSGRGIFPLAERANRGFGIVFSNGKKWKEIRRFSLMTLRNFGMGKRSIEDRVQEEARCLVEELRKTKASPCDPTFILGCAPCNVICSIIFHKRFDYKDQQFLNLMEKLNENIKILSSPWIQICNNFSPIIDYFPGTHNKLLKNVAFMKSYILEKVKEHQESMDMNNPQDFIDCFLMKMEKEKHNQPSEFTIESLENTAVDLFGAGTETTSTTLRYALLLLLKHPEVTAKVQEEIERVIGRNRSPCMQDRSHMPYTDAVVHEVQRYIDLLPTSLPHAVTCDIKFRNYLIPKGTTILISLTSVLHDNKEFPNPEMFDPHHFLDEGGNFKKSKYFMPFSAGKRICVGEALAGMELFLFLTSILQNFNLKSLVDPKNLDTTPVVNGFASVPPFYQLCFIPV |  | 34.63 ± 10.48 µM
